Experimental data as given in publication PMC10799292, “The Role of β-Defensin 1 Against Porphyromonas gingivalis Lipopolysaccharide-Mediated Inflammation in the THP-1 Cell Line” (Cureus, 2023).
No end group written: not given here.

What was measured:
[1] = system: Pg-LPS stimulated THP-1 cells; experiment: Cytotoxic evaluation of β-defensin 1 against Pg-LPS-treated THP-1 cells (MTT); format: cell-based, human; settings: β-defensin 1 at 260.85 ng/mL, 24 h, triplicates
Description: The THP-1 cell line was cultured in DMEM and supplemented with 10% FBS, sodium bicarbonate, L-glutamine, and an antibiotic solution containing penicillin (100 U/mL), amphotericin B (2.5 µg/mL), and streptomycin (100 µg/mL). The cells were maintained in a 5% humidified CO2 incubator (NBS Eppendorf, Germany) at 37°C. To induce differentiation into macrophages, the THP-1 cell line was treated with 25 ng/mL phorbol 12-myristate 13-acetate (PMA) (cat. 91585, Sigma-Aldrich, USA) and incubated for 48 hours. Following incubation, the cells were seeded in a 96-well culture plate at a density of 5x10^4 cells/well and incubated for 24 hours in a humidified 5% CO2 incubator at 37°C.
Inverted phase contrast microscopy (IPCM) using an Olympus CKX41 microscope (Olympus, Japan) equipped with an Optika Pro5 CCD camera (Optika, Italy) was utilized to directly observe the cells. Cell viability was determined using the MTT (3-(4,5-Dimethylthiazol-2-yl)-2,5-diphenyltetrazolium bromide) assay (Sigma, M-5655). […] The absorbance of this colored solution can be quantified by measuring at approximately 570 nm using a spectrophotometer.
The whole plate was analyzed under a microscope with an IPCM, and the results were photographed. […] The purple formazan crystals were dissolved in dimethyl sulfoxide (DMSO) and the absorbance (OD) was measured at 570 nm using a microplate reader. […]

[2] = system: COX; experiment: Cyclooxygenase (COX) activity inhibition in lysate of Pg-LPS stimulated THP-1 cells; format: cell-based, human; settings: for COX Percentage inhibition Average / COX Percentage inhibition 1 / COX Percentage inhibition 2: Pg-LPS 1 µg/mL, 24 h; for COX Percentage inhibition Average: mean of duplicates; for COX Percentage inhibition 1: replicate 1; for COX Percentage inhibition 2: replicate 2
Description: (§1) For inducing differentiation of THP-1 cells into macrophages, the cell line was premixed with 25 ng/mL PMA and incubated for 48 hours. After incubation, 5x10^4 cells were activated with Pg-LPS (LPS: 1 µg/mL) for one hour. Pg-LPS stimulated cells were exposed to different concentrations (6.25, 12.5, and 25 ng/mL) of β-defensin 1 and incubated for 24 hours. After incubation, the following anti-inflammatory assays were conducted utilizing the cell lysate.
The cyclooxygenase (COX) activity was assayed by the method of Walker and Gierse. The cell lysate was incubated for one minute at 25°C with Tris-HCl buffer (pH 8), glutathione 5 mM/L, and hemoglobin 5 mM/L. Arachidonic acid 200 mM/L was added to initiate the reaction, and after 20 minutes at 37°C, 200 µL of 10% trichloroacetic acid in 1 N hydrochloric acid was added to terminate the reaction. After centrifugation and addition of 200 µL of 1% thiobarbituric acid, the tubes were boiled for 20 minutes. After cooling, the tubes were centrifuged for three minutes. By reading absorbance at […], COX activity was measured, and the percentage of COX activity inhibition was calculated as per the following formula

[3] = system: LOX; experiment: Lipoxygenase (LOX) activity inhibition in lysate of Pg-LPS stimulated THP-1 cells; format: cell-based, human; settings: for LOX Percentage inhibition Average / LOX Percentage inhibition 1 / LOX Percentage inhibition 2: Pg-LPS 1 µg/mL, 24 h; for LOX Percentage inhibition Average: mean of duplicates; for LOX Percentage inhibition 1: replicate 1; for LOX Percentage inhibition 2: replicate 2
Description: as §1
The lipoxygenase (LOX) activity was determined using the method described by Axelrod in 1981 [12]. The reaction mixture consisted of 50 µL of cell lysate, Tris-HCl buffer (pH 7.4), and 200 µL of sodium linoleate. By determining absorbance at 234 nm (Agilent Cary 60), the formation of […], an indicator of LOX activity, was tracked. The percentage inhibition of the enzyme was computed as […]

[4] = system: MPO; experiment: Myeloperoxidase (MPO) activity in lysate of Pg-LPS stimulated THP-1 cells; format: cell-based, human; settings: for MPO Enzyme activity Average / MPO Enzyme activity 1 / MPO Enzyme activity 2: Pg-LPS 1 µg/mL, 24 h; for MPO Enzyme activity Average: mean of duplicates; for MPO Enzyme activity 1: replicate 1; for MPO Enzyme activity 2: replicate 2
Description: as §1
Cell lysate was homogenized in hexadecyltrimethyl ammonium bromide (HTAB) and potassium phosphate buffer. The samples were centrifuged at 2000g for 30 minutes at 4°C and the activity of myeloperoxidase (MPO) enzyme was measured with the supernatant. MPO in the sample was stimulated by adding 50 mM phosphate buffer (pH 6) containing 1.67 mg/mL guaiacol and 0.0005% hydrogen peroxide. The absorbance change at […] was determined. The MPO activity (U) was shown as units per milliliter of cell lysate. At 25 °C, one unit of MPO activity corresponds to the degradation of 1µM peroxide per minute.
where ΔOD is the density change, Vt is the total volume (mL) (1.1 mL ), L is the light path (1 cm), and £470 is the extinction coefficient for tetraguaiacol (26.6 mM^-1·cm^-1).

[5] = molecular docking; cited from earlier work
Excerpt: Two important functions of macrophages are to eliminate pathogens through phagocytosis and apoptosis of inflammatory cells and their subsequent clearance (efferocytosis). The present study analyzed the role of AMP, β-defensin 1, in Pg-LPS-stimulated THP-1 differentiated macrophage cells.

[6] = 6.25, 12.5, and 25 ng/mL, Pg-LPS stimulated

## β-defensin 1: β-Defensin 1 peptide was purchased from ThermoFisher Scientific, USA; cationic antimicrobial peptide (DHYNCVSSGGQCLYSACPIFTKIQGTCYRGKAKCCK; ends and bridges not checked; cysteine pairing not given here; UniProt P60022 33-68, looked up)
[1]; Pg-LPS (1 h) up to 1 µg/mL
  viability (in words): increased the viability of THP-1 cells
[1]; Pg-LPS beyond 1 µg/mL
  viability (in words): decrease in viability
[2]; 6.25 ng/mL
  COX Percentage inhibition Average: 19.085%
  COX Percentage inhibition 1: 19.77%
  COX Percentage inhibition 2: 18.4%
[2]; 12.5 ng/mL
  COX Percentage inhibition Average: 35.75%
  COX Percentage inhibition 1: 36.41%
  COX Percentage inhibition 2: 35.09%
[2]; 25 ng/mL
  COX Percentage inhibition Average: 53.03%
  COX Percentage inhibition 1: 53.21%
  COX Percentage inhibition 2: 52.85%
[2]; [6]
  COX percentage inhibition (in words): increased in a concentration-dependent manner
[2]; Pg-LPS 1 µg/mL 1 h, then β-defensin 1 24 h
  IC50 (COX inhibition assay): 0.02262 µg/mL
[3]; 6.25 ng/mL
  LOX Percentage inhibition Average: 21.485%
  LOX Percentage inhibition 1: 21.23%
  LOX Percentage inhibition 2: 21.74%
[3]; 12.5 ng/mL
  LOX Percentage inhibition Average: 38.08%
  LOX Percentage inhibition 1: 38.85%
  LOX Percentage inhibition 2: 37.31%
[3]; 25 ng/mL
  LOX Percentage inhibition Average: 54.675%
  LOX Percentage inhibition 1: 55.2%
  LOX Percentage inhibition 2: 54.15%
[3]; [6]
  LOX percentage inhibition (in words): increased in a concentration-dependent manner
[4]; 6.25 ng/mL
  MPO Enzyme activity Average: 0.02795 U/mL
  MPO Enzyme activity 1: 0.0278 U/mL
  MPO Enzyme activity 2: 0.0281 U/mL
[4]; 12.5 ng/mL
  MPO Enzyme activity Average: 0.021 U/mL
  MPO Enzyme activity 1: 0.0209 U/mL
  MPO Enzyme activity 2: 0.0211 U/mL
[4]; 25 ng/mL
  MPO Enzyme activity Average: 0.01515 U/mL
  MPO Enzyme activity 1: 0.0152 U/mL
  MPO Enzyme activity 2: 0.0151 U/mL
[4]; [6]
  MPO enzyme activity (in words): decreased in a concentration-dependent manner
[5]
  binding affinity with Pg-LPS (docking): good binding affinity with Pg-LPS
